Consider three compounds from publication PMC7982406, “Proteinase-Mediated Macrophage Signaling in Psoriatic Arthritis” (Frontiers in Immunology, 2021).

Where a SMILES comes first, the peptide text is derived from it. [ ]: non-standard residue; d: D form. The star is where a group is joined. AMC = Cc1cc(=O)oc2cc(N*)ccc12

One assay deals with T1, Tryptase-6 (PRSS33) (Homo sapiens, UniProt Q8NF86).
T1 construct: native active enzyme (~25 kDa) captured by anti-tryptase-6 antibody from patient synovial fluid
In words: fluorogenic cleavage, antibody pull-down from synovial fluid. In kind it is biochemical. The settings on record: 37 °C; ex 380 nm, em 460 nm; enzyme captured by plate-immobilized antibody.

Assay [1] addresses proteinase-activated receptor 2 (human (endogenous in HEK-293, THP-1 and primary monocytes/macrophages)) (UniProt P55085).
For assay [2], the target named is T2, PAR2 (proteinase-activated receptor 2) (Homo sapiens, UniProt P55085).
T2 construct: gene F2RL1; endogenous full-length receptor in HEK-293 cells; no response to 2fLI in CRISPR PAR2-knockout HEK-293
T2 sequence (P55085 26-397): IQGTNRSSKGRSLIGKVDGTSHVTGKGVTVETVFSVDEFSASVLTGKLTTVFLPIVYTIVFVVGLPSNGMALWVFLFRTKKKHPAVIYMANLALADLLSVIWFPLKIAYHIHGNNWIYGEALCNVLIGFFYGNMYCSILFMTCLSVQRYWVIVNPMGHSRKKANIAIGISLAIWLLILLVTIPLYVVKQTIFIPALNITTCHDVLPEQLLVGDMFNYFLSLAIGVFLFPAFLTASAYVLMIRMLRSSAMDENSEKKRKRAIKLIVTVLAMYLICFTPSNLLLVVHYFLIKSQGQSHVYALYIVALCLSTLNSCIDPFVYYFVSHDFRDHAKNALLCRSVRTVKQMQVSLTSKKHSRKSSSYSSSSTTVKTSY
The assay is described as follows: calcium signaling (Fluo-4 AM), HEK-293 cells. In kind it is cell-based. The conditions noted are these: antagonist; pre-treatment, then 0.15 µM 2fLI as agonist; 37 °C.

T1 sequence (Q8NF86 37-280): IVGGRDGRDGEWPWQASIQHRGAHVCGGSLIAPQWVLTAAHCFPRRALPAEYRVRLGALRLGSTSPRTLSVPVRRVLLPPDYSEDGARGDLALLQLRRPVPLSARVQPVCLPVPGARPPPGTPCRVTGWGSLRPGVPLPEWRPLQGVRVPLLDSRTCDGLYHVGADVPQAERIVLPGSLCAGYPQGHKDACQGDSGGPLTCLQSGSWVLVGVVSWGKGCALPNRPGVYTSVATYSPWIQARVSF

In the case of `Cc1cc(=O)oc2cc(NC(=O)[C@H](CCCCN)NC(=O)[C@H](CC(C)C)NC(=O)[C@H](N)C(C)C)ccc12` [VLK-AMC] (H-[dV]-Leu-Lys-{AMC}), the “fluorogenic cleavage, antibody pull-down from synovial fluid” value at Tryptase-6 (PRSS33) is “Tryptase-6 activity increased when both substrates were added”.

As to 2-furoyl-LIGRLO-NH2 (peptide), in assay [1], the calcium signaling (Fluo-4 AM) in HEK-293 cells, concentration-effect curve of 2fLI, EC50 was found to be 0.14 µM.

One may read the IC50 as the concentration that inhibits the measured activity by half. Regarding `CC(C)(C)c1cc(-c2ccc(F)cc2)nn2cc(C(=O)N3CCNC(=O)C3(C)C)nc12` [I-191], the half-inhibitory concentration (IC50) in assay [2] is 0.0021 µM.
